Test results taken from ChEMBL document CHEMBL1795221, “In vitro and in vivo anticancer activity evaluation of ursolic acid derivatives” (Eur J Med Chem, 2011).
The source made the active and inactive calls. No cut-off for these calls is given here.

Assays:
H22 [1] = assay: Antitumor activity against mouse H22 cells xenografted in kunming mouse assessed as inhibition of tumor growth at 50 mg/kg, ip for 7 days; format: functional; settings: 168 h, read-out: INH, route intraperitoneal
HepG2 [2] = assay: Cell cycle arrest in human HepG2 cells assessed as accumulation at G2/M phase at 20 uM after 24 hrs using propidium iodide staining by flow cytometric analysis (reference value: 14.31 %); format: functional
H22 [3] = assay: Antitumor activity against mouse H22 cells xenografted in kunming mouse assessed as increase in body weight at 50 to 150 mg/kg, ip for 7 days; format: functional, organism-based
HepG2 [4] = assay: Cell cycle arrest in human HepG2 cells assessed as reduction at G2/M phase after 24 hrs using propidium iodide staining by flow cytometric analysis; format: functional, cell-based
HepG2 [5] = assay: Cell cycle arrest in human HepG2 cells assessed as accumulation at G2/M phase at 30 uM after 24 hrs using propidium iodide staining by flow cytometric analysis (reference value: 14.31 %); format: functional
HepG2 [6] = assay: Cell cycle arrest in human HepG2 cells assessed as accumulation at S phase at 10 uM after 24 hrs using propidium iodide staining by flow cytometric analysis (reference value: 28.66 %); format: functional
HepG2 [7] = assay: Induction of apoptosis in human HepG2 cells at 10 to 30 uM after 24 hrs using annexin V-EGFP/PI double staining by flow cytometry; format: functional, cell-based
HepG2 [8] = assay: cells; settings: Homo sapiens, HepG2, 24 h
Description: Cytotoxicity against human HepG2 cells after 24 hrs by MTT assay

BGC-823 [9] = assay: Induction of apoptosis in human BGC823 cells assessed as increase in caspase-3 activity at 10 to 30 uM after 24 hrs by spectrophotometry; format: functional, cell-based
SH-SY5Y = assay: Cytotoxicity against human SH-SY5Y cells after 24 hrs by MTT assay; format: functional, cell-based
HepG2 [10] = assay: Cell cycle arrest in human HepG2 cells assessed as accumulation at G0/G1 phase at 10 uM after 24 hrs using propidium iodide staining by flow cytometric analysis (reference value: 57.03 %); format: functional
HepG2 [11] = assay: Cell cycle arrest in human HepG2 cells assessed as accumulation at S phase after 24 hrs using propidium iodide staining by flow cytometric analysis; format: functional, cell-based
BGC-823 [12] = assay: Cytotoxicity against human BGC823 cells after 24 hrs by MTT assay; format: functional, cell-based; settings: BGC-823, 24 h
H22 [13] = assay: Antitumor activity against mouse H22 cells xenografted in kunming mouse assessed as inhibition of tumor growth at 100 mg/kg, ip for 7 days; format: functional; settings: 168 h, route intraperitoneal
HepG2 [14] = assay: Cell cycle arrest in human HepG2 cells assessed as accumulation at G2/M phase at 10 uM after 24 hrs using propidium iodide staining by flow cytometric analysis (reference value: 14.31 %); format: functional
HepG2 [15] = assay: Cell cycle arrest in human HepG2 cells assessed as accumulation at G0/G1 phase at 30 uM after 24 hrs using propidium iodide staining by flow cytometric analysis (reference value: 57.03 %); format: functional
HepG2 [16] = assay: Induction of apoptosis in human HepG2 cells at 10 to 30 uM after 24 hrs using acridine orange staining by fluorescence microscopy; format: functional, cell-based
[17] = Cytotoxicity against human HELF cells after 24 hrs by MTT assay; format: cell-based
HeLa = assay: cells; settings: Homo sapiens, 24 h
Description: Cytotoxicity against human HeLa cells after 24 hrs by MTT assay

HepG2 [18] = assay: Cell cycle arrest in human HepG2 cells assessed as accumulation at S phase at 20 uM after 24 hrs using propidium iodide staining by flow cytometric analysis (reference value: 28.66 %); format: functional
HepG2 [19] = assay: Induction of apoptosis in human HepG2 cells assessed as increase in caspase-3 activity at 10 to 30 uM after 24 hrs by spectrophotometry; format: functional, cell-based
HepG2 [20] = assay: Cell cycle arrest in human HepG2 cells assessed as accumulation at G0/G1 phase at 20 uM after 24 hrs using propidium iodide staining by flow cytometric analysis (reference value: 57.03 %); format: functional
HepG2 [21] = assay: Cell cycle arrest in human HepG2 cells assessed as accumulation at G0/G1 phase after 24 hrs using propidium iodide staining by flow cytometric analysis; format: functional, cell-based
HepG2 [22] = assay: Cell cycle arrest in human HepG2 cells assessed as accumulation at S phase at 30 uM after 24 hrs using propidium iodide staining by flow cytometric analysis (reference value: 28.66 %); format: functional
H22 [23] = assay: Antitumor activity against mouse H22 cells xenografted in kunming mouse assessed as inhibition of tumor growth at 150 mg/kg, ip for 7 days; format: functional; settings: 168 h, route intraperitoneal

**Q.** Which results are given for `CC(=O)O[C@H]1CC[C@]2(C)[C@H]3CC=C4[C@@H]5[C@@H](C)[C@H](C)CC[C@]5(C(=O)N(CCO)CCO)CC[C@@]4(C)[C@]3(C)CC[C@H]2C1(C)C`?
**A.** inhibition in vivo at 50 mg/kg (H22 [1]): 36.6%; Activity (HepG2 [2]): 9.66%; Activity (H22 [3]): Active; Activity (HepG2 [4]): Dose-dependent effect; Activity (HepG2 [5]): 6.9%; Activity (HepG2 [6]): 32.13%; Activity (HepG2 [7]): Dose-dependent effect; IC50 (HepG2 [8]): 20.2 µM; Activity (BGC-823 [9]): Dose-dependent effect; IC50 (SH-SY5Y): 13.2 µM; Activity (HepG2 [10]): 55.89%; Activity (HepG2 [11]): Dose-dependent effect; IC50 (BGC-823 [12]): 15.5 µM; inhibition in vivo at 100 mg/kg (H22 [13]): 45.6%; Activity (HepG2 [14]): 11.98%; Activity (HepG2 [15]): 51.57%; Activity (HepG2 [16]): Active; IC50 [17]: 38.1 µM; IC50 (HeLa): 10.9 µM; Activity (HepG2 [18]): 37.43%; Activity (HepG2 [19]): Dose-dependent effect; Activity (HepG2 [20]): 52.91%; Activity (HepG2 [21]): Dose-dependent effect; Activity (HepG2 [22]): 41.53%; inhibition in vivo at 150 mg/kg (H22 [23]): 43%
